Measurements reported in patent publication US11198695B2, “Fused ring derivative having MGAT-2 inhibitory activity” (Shionogi & Co., Ltd., priority 2017, dated 2021).
Like-named read-outs stand apart in the source and are kept apart here.

Target: recombinant human MGAT2 (Homo sapiens (Human), UniProt Q3SYC2)
Assay: Measurement of human MGAT2 inhibitory activity
Format: biochemical
Protocol: A full-length human MGAT2 gene to which a Flag-tag had been added at the N-terminal was inserted into pFastBac (from Invitrogen). A recombinant baculovirus was produced in accordance with the protocol for a Bac-to-Bac baculovirus expression system (produced by Invitrogen), and Sf-9 cells were infected therewith. The cells were collected and sonicated, and then the membrane fraction was collected through centrifugation. Western blotting analysis with an anti-Flag antibody was performed for the membrane fraction to confirm expression, and the membrane fraction was used as a recombinant human MGAT2 enzyme solution.
Solutions of the compounds of the present invention in DMSO were each aliquoted into 0.2-μL portions in a 384-well polystyrene microplate produced by Corning Incorporated, and 5 μL of an enzyme solution prepared with an assay buffer (100 mmol/L phosphate buffer (pH 7.4) containing 2 mmol/L DTT) and 5 μL of a substrate solution (100 mmol/L phosphate buffer (pH 7.4), 30 μmol/L 2-Oleoylglycerol, 10 μmol/L Oleoyl-CoA) were added thereto, and the resultant was stirred and centrifuged, and incubated in a moist chamber at room temperature for 1 hour. After enzymatic reaction, 50 μL of a quenching solution (containing 0.2 μmol/L Diolein-d5, 0.4% formic acid, and 50% isopropanol) containing Internal Standard (IS) was added to terminate the reaction, and the resultant was sealed in a plate produced by Shimadzu GLC Ltd., and then stirred and centrifuged, and measurement was performed by using an electrospray ionization method with a RapidFire360 and Agilent 6550 Q-TOF mass spectrometer. Diolein as a reaction product (P) of 2-Oleoylglycerol as the substrate and an ammonium adduct ion of the IS were detected, and the peak intensity ratio, P/IS, was calculated from the peak heights to evaluate the inhibitory activity. Inhibitory activities with/without addition of enzyme were defined as Control (+)/Control (−), respectively, and the respective % inhibitions were defined as 0% inhibition and 100% inhibition. The inhibitory activity was calculated from formula below with TIBCO Spotfire (produced by TIBCO Software Inc.): Inhibitory activity (%)=[1−{Sample−Control(−)}/{Control(+)−Control(−)}]*100 where Sample indicates a peak intensity ratio: P/IS, when the compound of the present invention was added.

[1] = read-out: IC50 (concentration exhibiting 50% enzyme inhibition), Table 52

Chain of recombinant human MGAT2 (Q3SYC2 whole entry): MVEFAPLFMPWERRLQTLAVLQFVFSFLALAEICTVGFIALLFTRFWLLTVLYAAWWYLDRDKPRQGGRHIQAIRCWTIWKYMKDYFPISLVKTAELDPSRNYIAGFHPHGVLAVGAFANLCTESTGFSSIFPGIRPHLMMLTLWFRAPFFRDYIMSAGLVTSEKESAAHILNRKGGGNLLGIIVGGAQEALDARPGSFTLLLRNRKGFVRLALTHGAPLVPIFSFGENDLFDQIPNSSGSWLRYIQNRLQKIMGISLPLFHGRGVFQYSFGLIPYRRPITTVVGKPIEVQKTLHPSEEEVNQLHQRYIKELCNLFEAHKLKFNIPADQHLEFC

SMILES	IC50 (read-out: IC50 (concentration exhibiting 50% enzyme inhibition), Table 53) [nM]	IC50 [1] [nM]
O=C(Nc1nn(CCC2CC2)c2c1C(=O)N[C@@]1(CCc3cc(OCCCC(F)(F)F)ccc31)C2)c1ccno1 [Compound I-1]		540
CS(=O)(=O)CC(=O)Nc1c2c(nn1CCC1CC1)C[C@]1(CCc3cc(OCCCC(F)(F)F)ccc31)NC2=O [Compound I-2]		1.35
CS(=O)(=O)CC(=O)Nc1c2c(nn1CCC1CC1)C[C@]1(CCc3cc(C4CC4)ccc31)NC2=O [Compound I-3]		9.22
CC(=O)Nc1c2c(nn1CCC1CC1)C[C@]1(CCc3cc(OCCCC(F)(F)F)ccc31)NC2=O [Compound I-4]		330
CS(=O)(=O)CC(=O)Nc1c2c(nn1CCC1CC1)C[C@]1(CCc3cc(C(F)(F)F)ccc31)NC2=O [Compound I-6]		11.9
O=C1N[C@@]2(CCc3cc(OCCCC(F)(F)F)ccc32)Cc2nn(CCC3CC3)c(C(=O)O)c21 [Compound I-9]		70
CNS(=O)(=O)Nc1c2c(nn1CCC1CC1)C[C@]1(CCc3cc(OCCCC(F)(F)F)ccc31)NC2=O [Compound I-13]		90
CC(C)NC(=O)Nc1c2c(nn1CCC1CC1)C[C@]1(CCc3cc(OCCCC(F)(F)F)ccc31)NC2=O [Compound I-14]		380
COc1ccccc1C(=O)Nc1c2c(nn1CCC1CC1)C[C@]1(CCc3cc(OCCCC(F)(F)F)ccc31)NC2=O [Compound I-15]		280
O=C(Nc1c2c(nn1CCC1CC1)C[C@]1(CCc3cc(OCCCC(F)(F)F)ccc31)NC2=O)c1ccc(F)cc1 [Compound I-16]		150
COc1cccc(C(=O)Nc2c3c(nn2CCC2CC2)C[C@]2(CCc4cc(OCCCC(F)(F)F)ccc42)NC3=O)c1 [Compound I-17]		160
O=C(CC(F)F)Nc1c2c(nn1CCC1CC1)C[C@]1(CCc3cc(OCCCC(F)(F)F)ccc31)NC2=O [Compound I-20]		21
O=C(CC(F)(F)F)Nc1c2c(nn1CCC1CC1)C[C@]1(CCc3cc(OCCCC(F)(F)F)ccc31)NC2=O [Compound I-26]		15
COCC(=O)Nc1c2c(nn1CCC1CC1)C[C@]1(CCc3cc(OCCCC(F)(F)F)ccc31)NC2=O [Compound I-29]		113
CNS(=O)(=O)CC(=O)Nc1c2c(nn1CCC1CC1)C[C@]1(CCc3cc(OCCCC(F)(F)F)ccc31)NC2=O [Compound I-31]		3.2
O=C(COC(F)(F)F)Nc1c2c(nn1CCC1CC1)C[C@]1(CCc3cc(OCCCC(F)(F)F)ccc31)NC2=O [Compound I-32]		17

SMILES	IC50 (read-out: IC50 (concentration exhibiting 50% enzyme inhibition), Table 53) [nM]	IC50 [1] [nM]
CS(=O)(=O)CC(=O)Nc1c2c(nn1-c1ccc(OC(F)(F)F)cc1)C[C@]1(CCc3cc(OCCCC(F)(F)F)ccc31)NC2=O [Compound I-33]		14.7
CS(=O)(=O)CC(=O)Nc1c2c(nn1CCC1CC1)C[C@]1(CCc3cc(CCC(F)(F)F)ccc31)NC2=O [Compound I-35]		6.8
CS(=O)(=O)CC(=O)Nc1c2c(nn1-c1cccc3ccccc13)C[C@]1(CCc3cc(OCCCC(F)(F)F)ccc31)NC2=O [Compound I-39]		930
CS(=O)(=O)CC(=O)Nc1c2c(nn1C1CCCCC1)C[C@]1(CCc3cc(OCCCC(F)(F)F)ccc31)NC2=O [Compound I-40]		18
CS(=O)(=O)CC(=O)Nc1c2c(nn1-c1cccc3c1CCC3)C[C@]1(CCc3cc(OCCCC(F)(F)F)ccc31)NC2=O [Compound I-41]		79
CS(=O)(=O)CC(=O)Nc1c2c(nn1-c1ccc(S(C)(=O)=O)cc1)C[C@]1(CCc3cc(OCCCC(F)(F)F)ccc31)NC2=O [Compound I-43]		340
Cn1c(-n2nc3c(c2NC(=O)CS(C)(=O)=O)C(=O)N[C@@]2(CCc4cc(OCCCC(F)(F)F)ccc42)C3)nc2ccccc21 [Compound I-45]		41.5
Cc1ccc(-n2nc(NC(=O)CS(C)(=O)=O)c3c2C[C@]2(CCc4cc(OCCCC(F)(F)F)ccc42)NC3=O)cc1 [Compound I-48]		195
CS(=O)(=O)CC(=O)Nc1c2c(nn1CCC1CC1)C[C@]1(CCOc3cc(OCC(F)(F)F)ccc31)NC2=O [Compound I-49]		1.9
CCCCn1nc2c(c1NC(=O)CS(C)(=O)=O)C(=O)N[C@@]1(CCc3cc(OCCCC(F)(F)F)ccc31)C2 [Compound I-51]		16
CS(=O)(=O)CC(=O)Nc1c2c(nn1CCOCC(F)F)C[C@]1(CCc3cc(OCCCC(F)(F)F)ccc31)NC2=O [Compound I-53]		13
CCCn1nc2c(c1NC(=O)CS(C)(=O)=O)C(=O)N[C@@]1(CCc3cc(OCCCC(F)(F)F)ccc31)C2 [Compound I-54]		48
CS(=O)(=O)CC(=O)Nc1c2c(nn1CC1CCCO1)C[C@]1(CCc3cc(OCCCC(F)(F)F)ccc31)NC2=O (stereo partly shown) [Compound I-56]		25
CS(=O)(=O)CC(=O)Nc1c2c(nn1CCn1cccn1)C[C@]1(CCc3cc(OCCCC(F)(F)F)ccc31)NC2=O [Compound I-59]		14
CS(=O)(=O)CC(=O)Nc1c2c(nn1CC1CCC(C(F)(F)F)CC1)C[C@]1(CCc3cc(OCCCC(F)(F)F)ccc31)NC2=O (stereo partly shown) [Compound I-61]		340
CS(=O)(=O)CC(=O)Nc1nn(CCCc2ccccc2)c2c1C(=O)N[C@@]1(CCc3cc(OCCCC(F)(F)F)ccc31)C2 [Compound I-62]		250

Now from value to molecule:

IC50 (read-out: IC50 (concentration exhibiting 50% enzyme inhibition), Table 53) [nM]	IC50 [1] [nM]	SMILES
6.15		Cc1ccc(-n2nc3c(c2NC(=O)CS(C)(=N)=O)C(=O)N[C@@]2(CCc4cc(OCC(F)(F)F)ccc42)C3)nc1 (single isomer, unassigned) [II-275]
	500	CS(=O)(=O)CC(=O)Nc1nn(CCC2CC2)c2c1C(=O)N[C@@]1(CCc3cc(OCCCC(F)(F)F)ccc31)C2 [Compound I-5]
	15	CS(=O)(=O)CC(=O)Nc1c2c(nn1CCC1CC1)C[C@]1(CCc3cc(OCC(F)F)ccc31)NC2=O [Compound I-7]
	500	CNC(=O)c1c2c(nn1CCC1CC1)C[C@]1(CCc3cc(OCCCC(F)(F)F)ccc31)NC2=O [Compound I-11]
	9.1	O=C(Nc1c2c(nn1CCC1CC1)C[C@]1(CCc3cc(OCCCC(F)(F)F)ccc31)NC2=O)c1ccno1 [Compound I-18]
	38	O=C(Nc1c2c(nn1CCC1CC1)C[C@]1(CCc3cc(OCCCC(F)(F)F)ccc31)NC2=O)c1ccccc1 [Compound I-19]
	17	CS(=O)(=O)CC(=O)NCc1c2c(nn1CCC1CC1)C[C@]1(CCc3cc(OCCCC(F)(F)F)ccc31)NC2=O [Compound I-21]
	190	CS(=O)(=O)NCc1c2c(nn1CCC1CC1)C[C@]1(CCc3cc(OCCCC(F)(F)F)ccc31)NC2=O [Compound I-22]
	49	N#CCC(=O)Nc1c2c(nn1CCC1CC1)C[C@]1(CCc3cc(OCCCC(F)(F)F)ccc31)NC2=O [Compound I-25]
	600	O=C(CN1CCCC1=O)Nc1c2c(nn1CCC1CC1)C[C@]1(CCc3cc(OCCCC(F)(F)F)ccc31)NC2=O [Compound I-27]
	435	CC(=O)NCC(=O)Nc1c2c(nn1CCC1CC1)C[C@]1(CCc3cc(OCCCC(F)(F)F)ccc31)NC2=O [Compound I-28]
	175	Cn1cc(CC(=O)Nc2c3c(nn2CCC2CC2)C[C@]2(CCc4cc(OCCCC(F)(F)F)ccc42)NC3=O)cn1 [Compound I-30]
	27	CS(=O)(=O)CC(=O)Nc1c2c(nn1CCC1CC1)C[C@]1(CCc3cc(Br)ccc31)NC2=O [Compound I-36]
	625	CS(=O)(=O)Nc1c2c(nn1CCC1CC1)C[C@]1(CCc3cc(OCCCC(F)(F)F)ccc31)NC2=O [Compound I-38]
	2.5	Cc1ccc(-n2nc3c(c2NC(=O)CS(C)(=O)=O)C(=O)N[C@@]2(CCc4cc(OCCCC(F)(F)F)ccc42)C3)cc1 [Compound I-42]
	3.9	CS(=O)(=O)CC(=O)Nc1c2c(nn1-c1ccc(C#N)cc1)C[C@]1(CCc3cc(OCCCC(F)(F)F)ccc31)NC2=O [Compound I-44]
	440	CN(C)CCn1nc2c(c1NC(=O)CS(C)(=O)=O)C(=O)N[C@@]1(CCc3cc(OCCCC(F)(F)F)ccc31)C2 [Compound I-46]
	265	CS(=O)(=O)CC(=O)Nc1c2c(nn1CCN1CCCC1)C[C@]1(CCc3cc(OCCCC(F)(F)F)ccc31)NC2=O [Compound I-47]
	190	CS(=O)(=O)CC(=O)Nc1c2c(nn1CCCc1ccccc1)C[C@]1(CCc3cc(OCCCC(F)(F)F)ccc31)NC2=O [Compound I-50]
	24	CS(=O)(=O)CC(=O)Nc1c2c(nn1CCc1ccccc1)C[C@]1(CCc3cc(OCCCC(F)(F)F)ccc31)NC2=O [Compound I-52]
	10	CS(=O)(=O)CC(=O)Nc1c2c(nn1CCC1CCCCC1)C[C@]1(CCc3cc(OCCCC(F)(F)F)ccc31)NC2=O [Compound I-57]
	5.5	COCCCn1nc2c(c1NC(=O)CS(C)(=O)=O)C(=O)N[C@@]1(CCc3cc(OCCCC(F)(F)F)ccc31)C2 [Compound I-58]
	94	CS(=O)(=O)CC(=O)Nc1c2c(nn1CCOC(F)(F)F)C[C@]1(CCc3cc(OCCCC(F)(F)F)ccc31)NC2=O [Compound I-60]
